Laboratory results reported in PubChem BioAssay AID2060603 (Molecular Pharmacology Branch, DTP, NCI, 2025).
pIC50: −log10 of the molar value.

Test system: 422866-222-R5-J1-PDC spheroid viability
Experiment: Anticancer human tumor 422866-222-R5-J1-PDC patient-derived pancreatic adenocarcinoma cell line growth inhibition [CLK]
Settings: spheroids with HUVEC and MSC; for pIC50: curve of first compound; for viability, T/C: stronger effect = lower value; active means viability on the fitted dose curve at most 10% of control; inactive means the rest
Summary of the method: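 Multi-cell-type spheroids combined patient-derived tumor cells with HUVEC endothelial cells and human mesenchymal stem cells. Paired agents were dosed in half-log steps down from about clinical Cmax, or from 10 microM where Cmax was unknown.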

[1] = second compound 0.0316 µM, first compound 0.000949 µM
[2] = second compound 0.0316 µM, first compound 0.003 µM
[3] = second compound 0.0316 µM, first compound 0.00949 µM
[4] = second compound 0.0316 µM, first compound 0.03 µM
[5] = second compound 0.0316 µM, first compound 0.0949 µM
[6] = second compound 0.0316 µM, first compound 0.3 µM
[7] = second compound 0.1 µM, first compound 0.000949 µM
[8] = second compound 0.1 µM, first compound 0.003 µM
[9] = second compound 0.1 µM, first compound 0.00949 µM
[10] = second compound 0.1 µM, first compound 0.03 µM
[11] = second compound 0.1 µM, first compound 0.0949 µM
[12] = second compound 0.1 µM, first compound 0.3 µM
[13] = second compound 0.316 µM, first compound 0.000949 µM
[14] = second compound 0.316 µM, first compound 0.003 µM
[15] = second compound 0.316 µM, first compound 0.00949 µM
[16] = second compound 0.316 µM, first compound 0.03 µM
[17] = second compound 0.316 µM, first compound 0.0949 µM
[18] = second compound 0.316 µM, first compound 0.3 µM
[19] = second compound 1 µM, first compound 0.000949 µM
[20] = second compound 1 µM, first compound 0.003 µM
[21] = second compound 1 µM, first compound 0.00949 µM
[22] = second compound 1 µM, first compound 0.03 µM
[23] = second compound 1 µM, first compound 0.0949 µM
[24] = second compound 1 µM, first compound 0.3 µM
[25] = second compound 3.16 µM, first compound 0.000949 µM
[26] = second compound 3.16 µM, first compound 0.003 µM
[27] = second compound 3.16 µM, first compound 0.00949 µM
[28] = second compound 3.16 µM, first compound 0.03 µM
[29] = second compound 3.16 µM, first compound 0.0949 µM
[30] = second compound 3.16 µM, first compound 0.3 µM
[31] = second compound 10 µM, first compound 0.000949 µM
[32] = second compound 10 µM, first compound 0.003 µM
[33] = second compound 10 µM, first compound 0.00949 µM
[34] = second compound 10 µM, first compound 0.03 µM
[35] = second compound 10 µM, first compound 0.0949 µM
[36] = second compound 10 µM, first compound 0.3 µM
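Further: spheroids exposed to agents for seven days before readout.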

CC(C)CC(NC(=O)C(Cc1ccccc1)NC(=O)c1cnccn1)B(O)O (stereo unspecified) + CN1CCN(c2cc(C(=O)Nc3cc4cc(-c5cnn(C)c5)ccc4cn3)ccn2)CC1
active: viability, T/C [3] 8.95% | viability, T/C [4] 1.59% | viability, T/C [5] 0.94% | viability, T/C [6] 0.87% | viability, T/C [9] 8.61% | viability, T/C [10] 1.61% | viability, T/C [11] 0.69% | viability, T/C [12] 3% | viability, T/C [15] 4.02% | viability, T/C [16] 0.92% | viability, T/C [17] 0.7% | viability, T/C [18] 0.68% | viability, T/C [20] 4.84% | viability, T/C [21] 1.06% | viability, T/C [22] 0.61% | viability, T/C [23] 0.91% | viability, T/C [24] 2.12% | viability, T/C [26] 4.26% | viability, T/C [27] 1.32% | viability, T/C [28] 0.91% | viability, T/C [29] 1.14% | viability, T/C [30] 1.2% | viability, T/C [31] 1.77% | viability, T/C [32] 0.99% | viability, T/C [33] 1.54% | viability, T/C [34] 0.44% | viability, T/C [35] 1.53% | viability, T/C [36] 0.46%
inactive: viability, T/C [1] 111% | viability, T/C [2] 76.2% | viability, T/C [7] 115% | viability, T/C [8] 89.7% | viability, T/C [13] 112% | viability, T/C [14] 72.7% | viability, T/C [19] 25.4% | viability, T/C [25] 9.95%
8.28: pIC50 (second compound 0.1 µM)
8.33: pIC50 (second compound 0.0316 µM)
> 9.02: pIC50 (second compound 1 µM) | pIC50 (second compound 3.16 µM) | pIC50 (second compound 10 µM)
8.36: pIC50 (second compound 0.316 µM)

C=CC(=O)Nc1cc(Nc2nccc(-c3cn(C)c4ccccc34)n2)c(OC)cc1N(C)CCN(C)C + CN1CCN(c2cc(C(=O)Nc3cc4cc(-c5cnn(C)c5)ccc4cn3)ccn2)CC1
active: viability, T/C [25] 9.51% | viability, T/C [26] 9.88% | viability, T/C [27] 10.5% | viability, T/C [28] 10.5% | viability, T/C [29] 9.87% | viability, T/C [30] 9.45% | viability, T/C [31] 2.62% | viability, T/C [32] 2.53% | viability, T/C [33] 2.32% | viability, T/C [34] 1.8% | viability, T/C [35] 1.99% | viability, T/C [36] 1.66%
> 9.02: pIC50 (second compound 1 µM) | pIC50 (second compound 3.16 µM) | pIC50 (second compound 10 µM)
< 6.52: pIC50 (second compound 0.0316 µM) | pIC50 (second compound 0.1 µM) | pIC50 (second compound 0.316 µM)
inactive: viability, T/C [1] 122% | viability, T/C [2] 103% | viability, T/C [3] 114% | viability, T/C [4] 96% | viability, T/C [5] 93.9% | viability, T/C [6] 77.8% | viability, T/C [7] 133% | viability, T/C [8] 129% | viability, T/C [9] 107% | viability, T/C [10] 105% | viability, T/C [11] 94.2% | viability, T/C [12] 93.2% | viability, T/C [13] 94% | viability, T/C [14] 87.2% | viability, T/C [15] 93.7% | viability, T/C [16] 83.9% | viability, T/C [17] 87.6% | viability, T/C [18] 79% | viability, T/C [19] 29.3% | viability, T/C [20] 36.8% | viability, T/C [21] 35.3% | viability, T/C [22] 29.3% | viability, T/C [23] 30.8% | viability, T/C [24] 23.7%

COc1ccc([C@@H](O)c2cc(-c3ncnc4cc(N5CCOCC5)ccc34)c(F)cc2Cl)nn1 + CNC(=O)c1ccc(Nc2nc(OC3CCCC3)c3c(-c4ccc5nc(C)oc5c4)c[nH]c3n2)c(OC)c1
6.11: pIC50 (second compound 0.316 µM)
6.26: pIC50 (second compound 3.16 µM)
5.89: pIC50 (second compound 10 µM)
5.57: pIC50 (second compound 0.1 µM)
6.21: pIC50 (second compound 1 µM)
5.54: pIC50 (second compound 0.0316 µM)
inactive: viability, T/C (second compound 0.0316 µM, first compound 0.0316 µM) 113% | viability, T/C (second compound 0.0316 µM, first compound 0.1 µM) 91.6% | viability, T/C (second compound 0.0316 µM, first compound 0.316 µM) 77.5% | viability, T/C (second compound 0.0316 µM, first compound 1 µM) 70.2% | viability, T/C (second compound 0.0316 µM, first compound 3.16 µM) 45.1% | viability, T/C (second compound 0.0316 µM, first compound 10 µM) 35.2% | viability, T/C (second compound 0.1 µM, first compound 0.0316 µM) 106% | viability, T/C (second compound 0.1 µM, first compound 0.1 µM) 81.9% | viability, T/C (second compound 0.1 µM, first compound 0.316 µM) 84.1% | viability, T/C (second compound 0.1 µM, first compound 1 µM) 62.5% | viability, T/C (second compound 0.1 µM, first compound 3.16 µM) 45.4% | viability, T/C (second compound 0.1 µM, first compound 10 µM) 34.5% | viability, T/C (second compound 0.316 µM, first compound 0.0316 µM) 69.7% | viability, T/C (second compound 0.316 µM, first compound 0.1 µM) 63.1% | viability, T/C (second compound 0.316 µM, first compound 0.316 µM) 73.1% | viability, T/C (second compound 0.316 µM, first compound 1 µM) 44.7% | viability, T/C (second compound 0.316 µM, first compound 3.16 µM) 44.4% | viability, T/C (second compound 0.316 µM, first compound 10 µM) 32.9% | viability, T/C (second compound 1 µM, first compound 0.0316 µM) 63.3% | viability, T/C (second compound 1 µM, first compound 0.1 µM) 58% | viability, T/C (second compound 1 µM, first compound 0.316 µM) 57% | viability, T/C (second compound 1 µM, first compound 1 µM) 45.4% | viability, T/C (second compound 1 µM, first compound 3.16 µM) 38.3% | viability, T/C (second compound 1 µM, first compound 10 µM) 37.9% | viability, T/C (second compound 3.16 µM, first compound 0.0316 µM) 54.5% | viability, T/C (second compound 3.16 µM, first compound 0.1 µM) 66.2% | viability, T/C (second compound 3.16 µM, first compound 0.316 µM) 43.5% | viability, T/C (second compound 3.16 µM, first compound 1 µM) 47.8% | viability, T/C (second compound 3.16 µM, first compound 3.16 µM) 45.9% | viability, T/C (second compound 3.16 µM, first compound 10 µM) 37.7% | viability, T/C (second compound 10 µM, first compound 0.0316 µM) 48.5% | viability, T/C (second compound 10 µM, first compound 0.1 µM) 63.6% | viability, T/C (second compound 10 µM, first compound 0.316 µM) 56.8% | viability, T/C (second compound 10 µM, first compound 1 µM) 44.1% | viability, T/C (second compound 10 µM, first compound 3.16 µM) 48.9% | viability, T/C (second compound 10 µM, first compound 10 µM) 36.6%
